This is an account of results in patent publication US8986737B2, “Antibiotic microspheres for treatment and prevention of osteomyelitis and enhancement of bone regrowth” (Wm. Marsh Rice University, priority 2002, dated 2015).

Structures are written as SMILES. Converted amounts (≈) assume the structure as drawn. Like-named read-outs stand apart in the source and are kept apart here.

The test system of the test is S. aureus UAMS-1 (ATCC 49230). Put plainly: MIC and MBC determination by standard dilution methods. Type of test: cell-based, Staphylococcus aureus. On the procedure: The strain of S. aureus used in this study, UAMS-1, was isolated from a patient with osteomyelitis and deposited at the American Type Culture Collection as strain ATCC 49230. The bacteria were prepared from overnight cultures grown in tryptic soy broth at 37° C. with aeration. Cells were harvested by centrifugation, washed with sterile physiological saline, and resuspended to a final concentration of 2×10^8 CFU/ml (OD of 60% transmittance). Cell suspensions were prepared on the day of surgery and held on ice until implanted.
Minimum inhibitory concentration (MIC) and minimum bactericidal concentration (MBC) for the two antibiotics tested, tobramycin and cefazolin, were determined by standard dilution methods published by the National Committee for Clinical Laboratory Standards. Briefly, S. aureus cells were grown and diluted to 0.5 McFarland turbidity standard, approximately 2×10^8 cells/ml. The cells were mixed with either of the two antibiotics tested, at concentrations ranging from 2 μg/ml to 64 μg/ml. The following day, the cultures were examined for turbidity to allow determination of MIC values. After this, sample clear cultures were plated to determine the MBC, and colonies counts were done the next day.
Minimum inhibitory concentration and minimum bactericidal concentration for tobramycin was determined as previously described above, by standard dilution methods published by the National Committee for Clinical Laboratory Standards.

The mark [1] stands for this setting: Staphylococcus aureus, ATCC49230, read-out: MBC.
[2] abbreviates: Staphylococcus aureus, ATCC49230, read-out: MIC.

The MBC is the smallest concentration meeting the test's criterion for killing. One may read the MIC as the least concentration at which growth counts as inhibited. Regarding `Cc1nnc(SCC2=C(C(=O)O)N3C(=O)[C@@H](NC(=O)Cn4cnnn4)[C@H]3SC2)s1` [Cefazolin], under setting [1], the MBC was 32 µg/mL (≈ 70.4 µM). Moreover, the MIC under setting [2] is 2 µg/mL (≈ 4.4 µM).

The molecule `NC[C@H]1O[C@H](O[C@H]2[C@H](O)[C@@H](O[C@H]3O[C@H](CO)[C@@H](O)[C@H](N)[C@H]3O)[C@H](N)C[C@@H]2N)[C@H](N)C[C@@H]1O` [Tobramycin] displayed an MBC of 16 µg/mL (≈ 34.2 µM) and an MIC of 4 to 8 µg/mL. Moreover, the MBC under setting [1] is 16 µg/mL (≈ 34.2 µM). In addition, the MIC under setting [2] was 4 to 8 µg/mL (≈ 8.56 to 17.1 µM).
